Test results: patent US11725027B2, “Hypersensitive response elicitor-derived peptides and use thereof” (priority 2016, dated 2023)
Marks after values point to notes of the source that are not given here.

Tests used:
[1] = system: Nicotiana tabacum cultivar xanthi plants; assay: Hypersensitive Response (HR) induction in tobacco leaves; type: in vivo; set-up: key to HR: Plants are considered HR-positive (“HR+”) if they exhibit wide-spread macroscopic cell death visible to the naked eye, accompanied by wilting and browning of the affected tissue within 48 hours; Plants are considered HR-negative (“HR−”) if they exhibit no discernible wilting or tissue death observable by naked eye; conditions: for HR: tobacco leaf infused with 500, 250, 125, 62.5, 31.25 μg/ml peptide solutions, scored over 48 hours; for elicitation of HR, effect of Met to Ala mutations: tobacco
Description: A property of a peptide to elicit a hypersensitive response, or not, upon infiltration or application of the peptide to plant tissues can be measured by applying the peptide in dry powder form or in solution form to a plant, particularly though not exclusively a plant leaf.
The minimal eliciting sequence derived from was developed based on the sequence of the hrex gene from Xanthomonas campestris pv. pelargonii. A number of truncated and mutated sequences were synthesized and tested for Hypersensitive Response induction (results in Table 4). HR in tobacco was tested as described in Wei, Science 257:85-88 (1992), which is hereby incorporated by reference in its entirety. Briefly, peptides were dissolved at a concentration of 500 μg/ml in aqueous solution. Four serial dilutions were performed with an equal volume of water, yielding peptide samples at 500, 250, 125, 62.5, 31.25 μg/ml peptide solutions. Nicotiana tabacum cultivar xanthi plants were used at 5-7 weeks old (preflowering). Leaves were lightly punctured with a toothpick in a middle leaf panel. Peptide solutions were then infused via needle-less syringe into the wound, filling the panel. Each peptide sample was infused into a leaf of 2 different plants. The leaves were observed and scored over the next 48 hours for withering and browning, lesions typical of programmed cell death. These studies had […] main goals: (1) determine the minimal sequence sufficient for HR elicitation (2) increase the solution stability of the peptides; (3) make disruptive mutations to verify the residues which are most important for HR elicitation; (4) make conservative mutations to identify the degree of specificity for particular amino acids.

[2] = system: tobacco mosaic virus (TMV); assay: Induction of resistance to tobacco mosaic virus in tobacco; type: in vivo; conditions: % decline in TMV lesions vs UTC, spray 20 ug/ml; for Effectiveness Covered (%): covered leaf (systemic response); for Effectiveness Uncovered (%): uncovered leaf (local response)
Description: Peptides were tested for the induction of resistance to tobacco mosaic virus (TMV) in tobacco. Briefly, three tobacco plants at 6-8 weeks old were selected per group (samples and controls). The bottom-most leaf of the plant was covered and the plant was sprayed with a solution of water (untreated control—UTC), peptide, or Proact (positive control). The spray was applied until the leaves were fully wetted, indicated by liquid dripping from the leaves. The plants were then allowed to dry and the leaf covering was removed.
Three days post-treatment, the previously-covered leaf and a leaf on the opposite side of the plant were then lightly dusted with diatomaceous earth and 20 ul of a 1.7 ug/ml solution of purified tobacco mosaic virus was applied. The TMV solution was then spread across the leaf surface by lightly rubbing solution and the diatomaceous earth across the surface of the leaves. Two minutes after inoculation, the diatomaceous earth was rinsed off the leaves with water. 3 days after TMV inoculation, the leaves were scored based on the number of TMV lesions observed. The leaf was also scored for signs of the hypersensitive response, including yellowing and wilting of the affected leaves.
Effectiveness described in Table 6 refers to the % decline in TMV lesions on treated vs UTC plants. A reduction of TMV on covered leaves indicates a systemic immune response in the plant while reduction on uncovered leaves indicates a local response. Asterisks indicate that the P-value derived from a T-test was <0.05.

| Sequence | HR [1] | also measured |
| --- | --- | --- |
| AEQGSSQLDLLLMFIMMMLQQ [Peptide P5-74] | + |  |
| ITPDGQGGGQIGDNPQLDLLLAFIAAALQQ [Peptide P5-80] | Weak+ |  |
| ITPDGQGGGQIGDNPQLDLLLMFIMMMLQQ [Peptide P5-79] | Strong+ |  |
| LDLLLAFIEEELEEEE [Peptide P5-10] | - |  |
| NFGTPDSTVQNPQDASKPNQLDLLLAFIAAALQQ [Peptide P5-78] | Weak+ |  |
| NFGTPDSTVQNPQDASKPNQLDLLLMFIMMMLQQ [Peptide P5-77] | Weak+ |  |
| SAGSEQQEDELLAFIAAALQQ [Peptide P5-51] | - |  |
| SAGSEQQEDELLMFIMMMLQQ [Peptide P5-52] | - |  |
| SAGSEQQEDLLLAFIAAALQQ [Peptide P5-49] | - |  |
| SAGSEQQEDLLLAFIALQQ [Peptide P5-61] | - |  |
| SAGSEQQEDQLLLMFIMMMLQQ [Peptide P5-53] | - |  |
| SAGSEQQLDELLAFIAAALQQ [Peptide P5-50] | Weak+ |  |
| SAGSEQQLDELLAFIAAALQQ [Peptide P5-72] | - |  |
| SAGSEQQLDELLAFIALQQ [Peptide P5-62] | - |  |
| SAGSEQQLDELLMFIMMMLQQ [Peptide P5-36] | + |  |
| SAGSEQQLDLELMFIMMMLQQ [Peptide P5-37] | - |  |
| SAGSEQQLDLLEMFIMMMLQQ [Peptide P5-38] | - |  |
| SAGSEQQLDLLLAEIAAALQQ [Peptide P5-69] | - |  |
| SAGSEQQLDLLLAEIALQQ [Peptide P5-64] | - |  |
| SAGSEQQLDLLLAFIAAAL [Peptide P5-6] | - | Effectiveness Covered (%) [2]: 36%; Effectiveness Uncovered (%) [2]: 62% |
| SAGSEQQLDLLLAFIAAALQQ [Peptide P5-3] | + | elicitation of HR, effect of Met to Ala mutations [1]: do not affect the elicitation of HR; Effectiveness Covered (%) [2]: 70* %; Effectiveness Uncovered (%) [2]: 55% |
| SAGSEQQLDLLLAFIAAELQQ [Peptide P5-68] | - |  |
| SAGSEQQLDLLLAFIAEALQQ [Peptide P5-66] | Weak+ |  |

| Sequence | HR [1] | also measured |
| --- | --- | --- |
| SAGSEQQLDLLLAFIEAALQQ [Peptide P5-67] | - |  |
| SAGSEQQLDLLLAFIEALQQ [Peptide P5-65] | - |  |
| SAGSEQQLDLLLEFIAAALQQ [Peptide P5-70] | - |  |
| SAGSEQQLDLLLEFIALQQ [Peptide P5-63] | - |  |
| SAGSEQQLDLLLEFIMMMLQQ [Peptide P5-39] | Strong+ |  |
| SAGSEQQLDLLLMEIMMMLQQ [Peptide P5-40] | Strong+ |  |
| SAGSEQQLDLLLMFEMMMLQQ [Peptide P5-41] | - |  |
| SAGSEQQLDLLLMFIAAALQQ [Peptide P5-2] | + | elicitation of HR, effect of Met to Ala mutations [1]: do not affect the elicitation of HR; Effectiveness Covered (%) [2]: 90* %; Effectiveness Uncovered (%) [2]: 25% |
| SAGSEQQLDLLLMFIEMMLQQ [Peptide P5-42] | Weak+ |  |
| SAGSEQQLDLLLMFIMEMLQQ [Peptide P5-43] | Strong+ |  |
| SAGSEQQLDLLLMFIMMELQQ [Peptide P5-44] | Weak+ |  |
| SAGSEQQLDLLLMFIMMMEQQ [Peptide P5-45] | - |  |
| SAGSEQQLDQELLMFIMMMLQQ [Peptide P5-54] | - |  |
| SAGSEQQLDQLLLAFIAAALQQ [Peptide P5-55] | - |  |
| SAGSEQQLDQLLLMFIMMMLQQ [Peptide P5a] | + |  |
| SAGSEQQLELLLAFIAAALQQ [Peptide P5-4] | + | Effectiveness Covered (%) [2]: 98* %; Effectiveness Uncovered (%) [2]: 97* % |
| SEEEEELDLLLAFIAAAL [Peptide P5-7] | - | Effectiveness Covered (%) [2]: 91* %; Effectiveness Uncovered (%) [2]: 71% |
| SEEEEELDLLLAFIAAALA [Peptide P5-17] | - |  |
| SEEEEELDLLLAFIAAALE [Peptide P5-18] | - |  |
| SEEEEELDLLLAFIAAALGG [Peptide P5-14] | Weak+ |  |
| SEEEEELDLLLAFIAAALQ [Peptide P5-15] | - |  |
| SEEEEELDLLLAFIAAALQQ [Peptide P5-8] | Weak+ | Effectiveness Covered (%) [2]: 99* %; Effectiveness Uncovered (%) [2]: 99* % |
| SEEEEELDLLLAFIAAALS [Peptide P5-16] | - |  |

| Sequence | HR [1] | also measured |
| --- | --- | --- |
| SEEEEELDQLLLAFIAAAL [Peptide P5-24] | - |  |
| SEEEEELDQLLLAFIAAALQQ [Peptide P5-23] | Weak+ |  |
| SEEELDLLLAFIAAALDD [Peptide P5-13] | - |  |
| SEEELDLLLAFIAAALEE [Peptide P5-11] | - |  |
| SEEELDLLLAFIEEELEE [Peptide P5-12] | - |  |
| SEEELDLLLMFIMMMLEE [Peptide P5-29] | + |  |
| SEEELDQLLLMFIMMMLEE [Peptide P5-30] | + |  |
| SEEELELLLAFIAAALEEEE [Peptide P5-22] | + | Effectiveness Covered (%) [2]: 62%; Effectiveness Uncovered (%) [2]: 82% |
| SEEEQLDLLLMFIMMMLEE [Peptide P5-31] | + |  |
| SEEEQLDQLLLMFIMMMLEE [Peptide P5-32] | + |  |
| SEEEQLDQLLLMFIMMMLQEE [Peptide P5-34] | + |  |
| SEEQEEELLAFIAAALQQEE [Peptide P5-58] | - |  |
| SEEQEELLLAFIAAALQQEE [Peptide P5-56] | - |  |
| SEEQLDLLLAFIAAALQEE [Peptide P5-26] | + |  |
| SEEQLDLLLAFIAAALQQEE [Peptide P5-87] | - |  |
| SEEQLDLLLEFIEEELQQEE [Peptide P5-48] | - |  |
| SEEQLDLLLMFIMMMLQQEE [Peptide P5-47] | + | Effectiveness Covered (%) [2]: 78* %; Effectiveness Uncovered (%) [2]: 87* % |
| SEEQLDQLLLAFIAAALEE [Peptide P5-28] | Weak+ |  |
| SEEQLEELLAFIAAALQQEE [Peptide P5-57] | + |  |
| SEEQLELLLAFIAAALQEE [Peptide P5-88] | + |  |
| SELELLLAFIAAALEEEEE [Peptide P5-19] | + |  |
| SELELLLEFIEEELEE [Peptide P5-20] | - |  |
| SQAGSEQLDLLLMFIMMMLQQ [Peptide P5-73] | + |  |
